Data from publication PMC7817691 (Nature Communications, 2021).

Legend:
[1] = biological target: T1, SARS-CoV-2 PLpro (Severe acute respiratory syndrome coronavirus 2, UniProt P0DTD1); format: biochemical
T1 construct: gene rep

[2] = biological target: T1, SARS-CoV-2 PLpro; format: binding

SMILES | IC50 [1] | 1H,15N-HSQC NMR competition with 15N-ISG15 [2]
Nc1nc(=S)c2[nH]cnc2[nH]1 [Tioguanine] | 72 ± 12 µM | –
CC(=O)Nc1ccc(C)c(C(=O)N[C@H](C)c2cccc3ccccc23)c1 [compound 6] | 11 ± 3 µM | –
Cc1ccc(N)cc1C(=O)N[C@H](C)c1cccc2ccccc12 [GRL0617] | – | GRL0617 competes with ISG15 for the binding site in PLpro
